Experimental data taken from patent US20260159520A1, “HETEROBIFUNCTIONAL COMPOUNDS AND METHODS OF TREATING DISEASE” (Halda Therapeutics OpCo, Inc., priority 2022, published 2026).

How the values were obtained:
[1] = test system: T-Rex 293 cell line SC3 cells having increased expression of androgen receptor protein; test: Cellular growth inhibition, T-Rex 293 SC3 cells with doxycycline (increased androgen receptor expression); type: cell-based; details: with 10 ng/mL doxycycline (increased androgen receptor), 72 hours, CellTiter-Glo 2.0
Procedure, shortened: (§1)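 Doxycycline (10 ng/mL) was either included or omitted to toggle wild-type androgen receptor expression in SC3 cells, a T-Rex 293 clone, grown in stripped-serum, phenol red-free medium. After 72 hours with compound, viable cells were quantified by CellTiter-Glo 2.0.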

[2] = test system: T-Rex 293 cell line SC3 cells lacking increased expression of androgen receptor protein; test: Cellular growth inhibition, T-Rex 293 SC3 cells without doxycycline; type: cell-based; details: not exposed to doxycycline, 72 hours, CellTiter-Glo 2.0
Procedure, shortened: as §1

[3] = target: T1, androgen receptor (Homo sapiens, UniProt P10275); test: Binding affinity to androgen receptor ([3H]methyltrienolone radioligand, cell cytosol); details: Table 6
T1 construct: endogenous in cells; host or cells: unnamed cells (cytosol fraction)
T1 sequence (P10275 1-920): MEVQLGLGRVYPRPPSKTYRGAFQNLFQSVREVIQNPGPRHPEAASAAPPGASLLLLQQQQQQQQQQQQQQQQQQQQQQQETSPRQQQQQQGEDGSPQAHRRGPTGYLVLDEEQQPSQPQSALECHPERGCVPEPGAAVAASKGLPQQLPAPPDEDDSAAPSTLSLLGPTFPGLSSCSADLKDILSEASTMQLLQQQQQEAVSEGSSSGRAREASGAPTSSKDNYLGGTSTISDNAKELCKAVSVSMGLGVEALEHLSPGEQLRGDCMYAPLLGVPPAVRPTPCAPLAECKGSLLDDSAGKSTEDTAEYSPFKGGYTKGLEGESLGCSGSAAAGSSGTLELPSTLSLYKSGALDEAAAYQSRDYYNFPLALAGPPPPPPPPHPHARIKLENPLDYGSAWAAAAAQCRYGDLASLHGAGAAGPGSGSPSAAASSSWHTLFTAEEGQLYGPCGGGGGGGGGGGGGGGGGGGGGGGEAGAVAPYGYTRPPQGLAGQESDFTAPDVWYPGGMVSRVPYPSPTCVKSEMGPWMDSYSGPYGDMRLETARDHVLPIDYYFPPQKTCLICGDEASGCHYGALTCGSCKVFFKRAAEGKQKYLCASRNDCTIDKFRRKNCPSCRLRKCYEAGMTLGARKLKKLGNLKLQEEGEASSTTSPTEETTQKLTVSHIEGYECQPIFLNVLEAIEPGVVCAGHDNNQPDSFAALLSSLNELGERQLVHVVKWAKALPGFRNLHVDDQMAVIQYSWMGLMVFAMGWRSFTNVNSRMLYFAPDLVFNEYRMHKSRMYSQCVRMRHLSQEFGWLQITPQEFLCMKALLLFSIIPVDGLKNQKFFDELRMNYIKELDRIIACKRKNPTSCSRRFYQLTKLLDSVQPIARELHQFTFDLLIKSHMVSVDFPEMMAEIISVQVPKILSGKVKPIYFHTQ
Experimental: Fractions of cell cytosol ([…]) were incubated for 24 hr at 4° C. with 1 nM [^3H]methyltrienolone in the absence or presence of the test compound in a buffer containing 25 mM Hepes-Tris (pH 7.4), 1 mM EDTA, 10 mM Na2MoO4, 2 mM DTT, 5 μM triamcinolone acetonide, and 10% glycerol. Nonspecific binding was determined in the presence of 1 μM testosterone. Following incubation, the samples were filtered rapidly under vacuum through glass fiber filters (GF/B, Packard) presoaked with 0.3% PEI and rinsed several times with ice-cold 50 mM Tris-HCl using a 96-sample cell harvester (Unifilter, Packard). The filters were dried then counted for radioactivity in a scintillation counter (Topcount, Packard) using a scintillation cocktail (Microscint 0, Packard). The results are expressed as a percent inhibition of the control radioligand specific binding. The standard reference compound is testosterone, which is tested in each experiment at several concentrations to obtain a competition curve from which its IC50 is calculated.

[4] = target: T2, CDK9 (Homo sapiens, UniProt P50750); test: KdELECT binding assay, CDK9; details: CDK9, Table 7
T2 construct: made in house; host or cells: E. coli BL21-derived host (T7 phage) or HEK-293 ('BEK-293' [sic])
Experimental: Compounds were tested using a KdELECT. Kinase-tagged T7 phage strains were prepared in an E. coli host derived from the BL21 strain. E. coli were grown to log-phase and infected with T7 phage and incubated with shaking at 32° C. until lysis. The lysates were centrifuged and filtered to remove cell debris. The remaining kinases were produced in BEK-293 cells and subsequently tagged with DNA for qPCR detection. Streptavidin-coated magnetic beads were treated with biotinylated small molecule ligands for 30 minutes at room temperature to generate affinity resins for kinase assays. The liganded beads were blocked with excess biotin and washed with blocking buffer (SeaBlock (Pierce), 1% BSA, 0.05% Tween 20, 1 mM DTT) to remove unbound ligand and to reduce non-specific binding. Binding reactions were assembled by combining kinases, liganded affinity beads, and test compounds in 1× binding buffer (20% SeaBlock, 0.17×PBS, 0.05% Tween 20, 6 mM DTT). Test compounds were prepared as 111× stocks in 100% DMSO. Kd values were determined using an 11-point 3-fold compound dilution series with three DMSO control points. All compounds for Kd measurements are distributed by acoustic transfer (non-contact dispensing) in 100% DMSO. The compounds were then diluted directly into the assays such that the final concentration of DMSO was 0.9%. All reactions performed in polypropylene 384-well plate. Each was a final volume of 0.02 mL. The assay plates were incubated at room temperature with shaking for 1 hour and the affinity beads were washed with wash buffer (lx PBS, 0.05% Tween 20). The beads were then re-suspended in elution buffer (lx PBS, 0.05% Tween 20, 0.5 μM nonbiotinylated affinity ligand) and incubated at room temperature with shaking for 30 minutes. The kinase concentration in the eluates was measured by qPCR.

[5] = test system: T47D cells; test: Cellular growth inhibition assay for T47D cells; type: cell-based; details: Homo sapiens, 72 hours, CellTiter-Glo 2.0
Experimental: T47D cells were purchased from American Type Cell Culture (ATCC Cat #HTB-133) and then seeded on poly-D-lysine coated, black clear-bottom 384-well plates at 3000/well in 25 μL Dulbecco's Modified Eagle Medium (DMEM) supplemented with 10% w/w Fetal bovine serum (FBS), 0.2 units/mL recombinant human insulin (Gibco Cat #12585014), and 1% w/w Pen-Strep. Pen-Strep is a commercially available mixture of penicillin G and streptomycin, which is used in mammalian cell culture media to prevent bacterial contamination. Dulbecco's Modified Eagle Medium (DMEM) supplemented with 10% w/w fetal bovine serum (FBS), 0.2 units/mL recombinant human insulin, and 1% w/w Pen-Strep is herein referred to as Treatment Medium. Following seeding of cells in the plates, the plates were spun at 300×g for 30 seconds, then equilibrated to room temperature for 30 minutes, and then deposited in a humidified tissue culture incubator maintained at 37° C. with 5% CO2.
At 24 hours after seeding of the cells, dilutions of test compound were prepared in DMSO and dissolved in Treatment Medium, to achieve a final DMSO concentration of 0.5% w/w, thereby providing the Test Compound Solution. A 25 μL aliquot of the Test Compound Solution was added to cells in the well plates. An equal volume of a solution containing DMSO and Treatment Medium was used as a negative control. Following treatment of cells with Test Compound Solution or said equal volume of a solution containing DMSO and Treatment Medium, the plates were spun at 300×g for 30 seconds, and then left in an incubator for 72 hours.
At the end of the treatment duration, cell viability was quantified with CellTiter-Glo 2.0 reagent (Promega Cat #G9243). For this purpose, plates were equilibrated to room temperature for 30 minutes, and then 25 μL of CellTiter-Glo 2.0 reagent was added to cells in the plate wells. Plates were then agitated on a shaker for two minutes at 500 rpm and subsequently incubated at room temperature for 10 minutes. Following incubation, the plates were spun at 3000×g for 30 seconds, then sealed with an optical adhesive cover, and luminescence readings were measured with an EnVision Plate Reader (Perkin Elmer).
Data was normalized using zero luminescence for baseline. A four-parameter non-linear regression curve fit was applied to dose-response data in GraphPad Prism data analysis software to determine the half-maximal growth inhibitory concentration (GI50) for each test compound.

[6] = test system: VCaP cells; test: Cellular growth inhibition assay for VCaP cells; type: cell-based; details: Homo sapiens, 72 hours, CellTiter-Glo 2.0

T2 sequence (P50750 whole entry): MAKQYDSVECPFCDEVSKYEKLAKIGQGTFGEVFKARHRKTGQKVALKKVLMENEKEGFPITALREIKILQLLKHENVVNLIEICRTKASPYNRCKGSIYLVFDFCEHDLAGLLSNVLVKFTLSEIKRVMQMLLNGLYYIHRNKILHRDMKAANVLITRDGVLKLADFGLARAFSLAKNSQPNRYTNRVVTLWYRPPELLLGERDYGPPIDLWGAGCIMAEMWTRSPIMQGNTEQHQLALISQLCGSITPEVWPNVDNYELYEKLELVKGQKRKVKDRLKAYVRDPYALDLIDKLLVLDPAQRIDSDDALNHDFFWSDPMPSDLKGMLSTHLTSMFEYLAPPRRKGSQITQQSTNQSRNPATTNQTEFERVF

Kd [3] [nM] | Kd [4] [nM] | GI50 [5] [nM] | GI50 [6] [nM] | SMILES | GI50 [1] [nM] | GI50 [2] [nM]
< 50 |  |  |  | CCc1cnn2c(NCc3ccc(OCCCN4CCN(CCCN(C)c5ncc(C(=O)N[C@H]6C(C)(C)[C@H](Oc7ccc(C#N)c(Cl)c7)C6(C)C)cn5)CC4)nc3)cc(N3CCCC[C@H]3CCO)nc12 [Compound I-6, N-((1r,3r)-3-(3-chloro-4-cyanophenoxy)-2,2,4,4-tetramethylcyclobutyl)-2-((3-(4-(3-((5-(((3-ethyl-5-((S)-2-(2-hydroxyethyl)piperidin-1-yl)pyrazolo[1,5-a]pyrimidin-7-yl)amino)methyl)pyridin-2-yl)oxy)propyl)piperazin-1-yl)propyl)(methyl)amino)pyrimidine-5-carboxamide] | < 100 | 100 to 1000
 | 500 to 2500 | < 500 |  | CN(CCCN1CCN(CCCNS(=O)(=O)c2ccc(Nc3ncc(Br)c(Nc4cccc(F)c4C(N)=O)n3)cc2)CC1)c1ncc(C(=O)N[C@H]2C(C)(C)[C@H](Oc3ccc(C#N)c(Cl)c3)C2(C)C)cn1 [Compound I-22, 2-((3-(4-(3-((4-((5-bromo-4-((2-carbamoyl-3-fluorophenyl)amino)pyrimidin-2-yl)amino)phenyl)sulfonamido)propyl)piperazin-1-yl)propyl) (methyl)amino)-N-((1r,3r)-3-(3-chloro-4-cyanophenoxy)-2,2,4,4-tetramethylcyclobutyl) pyrimidine-5-carboxamide] | 1000 to 3500 | > 3500
 | < 50 | < 500 | 100 to 1000 | CCc1cnn2c(NCc3ccc(N(C)CC4CCN(CC5CCN(c6ncc(C(=O)N[C@H]7C(C)(C)[C@H](Oc8ccc(C#N)c(Cl)c8)C7(C)C)cn6)CC5)CC4)nc3)cc(N3CCCC[C@H]3CCO)nc12 [Compound I-59, N-((1r,3r)-3-(3-chloro-4-cyanophenoxy)-2,2,4,4-tetramethylcyclobutyl)-2-(4-((4-(((5-(((3-ethyl-5-((S)-2-(2-hydroxyethyl)piperidin-1-yl)pyrazolo[1,5-a]pyrimidin-7-yl)amino)methyl)pyridin-2-yl)(methyl)amino)methyl)piperidin-1-yl)methyl)piperidin-1-yl)pyrimidine-5-carboxamide] | < 100 | 100 to 1000
 | < 50 | 1500 to 3000 | 100 to 1000 | COc1cc(F)ccc1-c1ccnc2[nH]c(C3CCN(CCOCCOC4CCN(c5ncc(C(=O)N[C@H]6C(C)(C)[C@H](Oc7ccc(C#N)c(Cl)c7)C6(C)C)cn5)CC4)CC3)cc12 [Compound I-69] | 100 to 1000 | 100 to 1000
 | 50 to 500 | 1500 to 3000 | 100 to 1000 | COc1cc(F)ccc1-c1ccnc2[nH]c(C3CCN(CCOCCOCCOCCOC4CCN(c5ncc(C(=O)N[C@H]6C(C)(C)[C@H](Oc7ccc(C#N)c(Cl)c7)C6(C)C)cn5)CC4)CC3)cc12 [Compound I-70] | 1000 to 3500 | 1000 to 3500
 | < 50 | < 500 | < 100 | CC(C)n1cc(-c2ccnc3[nH]c(C4CCN(CCOCCOC5CCN(c6ncc(C(=O)N[C@H]7C(C)(C)[C@H](Oc8ccc(C#N)c(Cl)c8)C7(C)C)cn6)CC5)CC4)cc23)ccc1=O [Compound I-76] | 100 to 1000 | 100 to 1000
 | < 50 | 500 to 1500 | < 100 | CC(C)n1cc(-c2ccnc3[nH]c(C4CCN(CCOCCOCCOCCOC5CCN(c6ncc(C(=O)N[C@H]7C(C)(C)[C@H](Oc8ccc(C#N)c(Cl)c8)C7(C)C)cn6)CC5)CC4)cc23)ccc1=O [Compound I-78] | < 100 | 100 to 1000
 | 500 to 2500 | 500 to 1500 | > 3500 | CC1(C)[C@H](NC(=O)c2cnc(N3CCC(OCCN4C/C=C/CCOc5cccc(c5)-c5ccnc(n5)Nc5cccc(c5)C4)CC3)nc2)C(C)(C)[C@H]1Oc1ccc(C#N)c(Cl)c1 [Compound I-87, N-[3-(3-chloro-4-cyano-phenoxy)-2,2,4,4-tetramethyl-cyclobutyl]-2-[4-[2-[(16E)-20-oxa-5,7,14,27-tetrazatetracyclo [19.3.1.12,6.18,12]heptacosa-1(24),2(27),3,5,8(26),9,11,16, 21(25),22-decaen-14-yl]ethoxy]-1-piperidyl]pyrimidine-5-carboxamide] | 100 to 1000 | > 3500
 | 500 to 2500 | < 500 | 100 to 1000 | CC1(C)[C@H](NC(=O)c2cnc(N3CCC(OCCOCCOCCOCCN4C/C=C/CCOc5cccc(c5)-c5ccnc(n5)Nc5cccc(c5)C4)CC3)nc2)C(C)(C)[C@H]1Oc1ccc(C#N)c(Cl)c1 [Compound I-90] | 100 to 1000 | > 3500
